Test results reported in patent publication US20070128217A1 (priority 2003, published 2007).

Tests used:
[1] = test system: control sera (pooled serum of ten healthy LUMC hospital workers; commercial negative donor pooled serum from the Dutch bloodbank); format: binding, human; design: Binding of Control serum LUMC to linear peptides / Binding of Control serum Blood-bank to linear peptides / Binding of Control serum LUMC to looped peptides / Binding of Control Serum Blood-Bank to Looped peptides / Binding of Control serum LUMC to linear peptides of the protein M of SARS-CoV Urbani / Binding of Control serum Blood-bank to linear peptides of the protein M of SARS-CoV Urbani / Binding of Control serum LUMC to looped peptides of the protein M of SARS-CoV Urbani / Binding of Control Serum Blood-Bank to Looped peptides of the protein M of SARS-CoV Urbani: unit not given here
[2] = test system: rabbit serum obtained by immunizing a rabbit with the SARS-CoV strain Frankfurt 1; format: binding; design: Binding of a rabbit serum to linear peptides / Binding of a rabbit serum to looped peptides / Rabbit serum linear peptides / Rabbit serum looped peptides / Binding of a rabbit serum to linear peptides of protein N of SARS-CoV Urbani (Rabbit serum linear peptides) / Binding of a rabbit serum to looped/cyclic peptides of protein N of SARS-CoV Urbani (Rabbit serum looped peptides): unit not given here
[3] = test system: antibodies in sera from SARS patients (sera 1a, 1b, 2, 6, 37, 62, London, SARS-yellow, SARS-green); format: binding, human; design: Binding of serum 6 to linear peptides of protein X1 of SARS-CoV Urbani / Binding of serum 37 to linear peptides of protein X1 of SARS-CoV Urbani / Binding of serum 6 to looped/cyclic peptide (PEPSCAN-ELISA) / Binding of serum 37 to looped/cyclic peptide (PEPSCAN-ELISA) / Binding of serum 37 to looped/cyclic peptides of protein X1 of SARS-CoV Urbani / Binding of serum 6 to linear peptides of protein X2 / Binding of serum 37 to linear peptides of protein X2 / Binding of serum 37 to looped/cyclic peptides of protein X2 of SARS-CoV Urbani / Binding of serum 6 to linear peptides of protein M of SARS-CoV Urbani / Binding of serum 37 to linear peptides of protein M of SARS-CoV Urbani / Binding of serum 6 to looped/cyclic peptides of protein M of SARS-CoV Urbani / Binding of serum 37 to looped/cyclic peptides of protein M of SARS-CoV Urbani / Binding of serum 6 to linear peptides of protein X3 of SARS-CoV Urbani / Binding of serum 37 to linear peptides of protein X3 of SARS-CoV Urbani / Binding of serum 37 to looped/cyclic peptides of protein X3 of SARS-CoV Urbani / Binding of serum 6 to linear peptides of protein X4 of SARS-CoV Urbani / Binding of serum 37 to linear peptides of protein X4 of SARS-CoV Urbani / Binding of serum 37 to looped/cyclic peptides of protein X4 of SARS-CoV Urbani / Binding of serum 6 to linear peptides of protein X5 of SARS-CoV Urbani / Binding of serum 37 to linear peptides of protein X5 of SARS-CoV Urbani / Binding of serum 37 to looped/cyclic peptides of protein X5 of SARS-CoV Urbani / Binding of serum 6 to linear peptides of protein N of SARS-CoV Urbani / Binding of serum 37 to linear peptides of protein N of SARS-CoV Urbani / Binding of serum 6 to linear peptide (PEPSCAN-ELISA) / Binding of serum 1a to looped/cyclic peptides of protein N of SARS-CoV Urbani / Binding of serum 1b to looped/cyclic peptides of protein N of SARS-CoV Urbani / Binding of serum 2 to looped/cyclic peptides of protein N of SARS-CoV Urbani / Binding of serum 6 to looped/cyclic peptides of protein N of SARS-CoV Urbani / Binding of serum 37 to looped/cyclic peptides of protein N of SARS-CoV Urbani / Binding of serum 62 to looped/cyclic peptides of protein N of SARS-CoV Urbani / Binding of serum London to looped/cyclic peptides of protein N of SARS-CoV Urbani / Binding of serum SARS-green to looped/cyclic peptides of protein N of SARS-CoV Urbani: unit not given here
[4] = test system: recombinant human anti-SARS-CoV antibody 03-018; format: binding; design: Binding of antibody 03-018 to linear peptides of the N protein of SARS-CoV Urbani / Binding of antibody 03-018 to looped/cyclic peptides of the N protein of SARS-CoV Urbani: unit not given here

Sequence	Binding of Control Serum Blood-Bank to Looped peptides [1]	Binding of Control serum Blood-bank to linear peptides [1]	Binding of Control serum LUMC to linear peptides [1]	Binding of Control serum LUMC to looped peptides [1]	Binding of a rabbit serum to linear peptides of protein N of SARS-CoV Urbani (Rabbit serum linear peptides) [2]	Binding of a rabbit serum to looped/cyclic peptides of protein N of SARS-CoV Urbani (Rabbit serum looped peptides) [2]	Binding of serum 1a to linear peptides of protein N of SARS-CoV Urbani [3]	Binding of serum 1a to looped/cyclic peptides of protein N of SARS-CoV Urbani [3]	Binding of serum 1b to linear peptides of protein N of SARS-CoV Urbani [3]	Binding of serum 1b to looped/cyclic peptides of protein N of SARS-CoV Urbani [3]	Binding of serum 2 to linear peptides of protein N of SARS-CoV Urbani [3]	Binding of serum 2 to looped/cyclic peptides of protein N of SARS-CoV Urbani [3]	Binding of serum 6 to looped/cyclic peptides of protein N of SARS-CoV Urbani [3]	Binding of serum 37 to looped/cyclic peptides of protein N of SARS-CoV Urbani [3]	Binding of serum 62 to looped/cyclic peptides of protein N of SARS-CoV Urbani [3]	Binding of serum London to looped/cyclic peptides of protein N of SARS-CoV Urbani [3]	Binding of serum SARS-green to looped/cyclic peptides of protein N of SARS-CoV Urbani [3]	Binding of serum SARS-yellow to looped/cyclic peptides of protein N of SARS-CoV Urbani [3]	Binding of antibody 03-018 to linear peptides of the N protein of SARS-CoV Urbani [4]	Binding of antibody 03-018 to looped/cyclic peptides of the N protein of SARS-CoV Urbani [4]	other results
GGPTDSTDNNQNGGR	0.5	0.7	0.8	0.5	0.1	0.1	0.3	0.3	0.1	0.1	0.3	0.4	0.2	0.5	0.3	0.3	0.2	0.2	0.1	0.2	Binding of serum 6 to linear peptides of protein N of SARS-CoV Urbani [3]: 0.2; Binding of serum 37 to linear peptides of protein N of SARS-CoV Urbani [3]: 0.7; Binding of serum 62 to linear peptides of protein N of SARS-CoV Urbani [3]: 0.7; Binding of serum London to linear peptides of protein N of SARS-CoV Urbani [3]: 0.6; Binding of serum SARS-green to linear peptides of protein N of SARS-CoV Urbani [3]: 0.6; Binding of serum SARS-yellow to linear peptides of protein N of SARS-CoV Urbani [3]: 0.6
SKVSGKGQQQQGQTV	0.8	0.6	0.7	0.8	0.1	0.6		0.4		0.2		0.7	0.4	0.6	0.6	0.8	0.5	0.6	0.1	0.2	Binding of serum 1a to linear peptide (PEPSCAN-ELISA) [3]: 0.2; Binding of serum 1b to linear peptide (PEPSCAN-ELISA) [3]: 0.1; Binding of serum 2 to linear peptide (PEPSCAN-ELISA) [3]: 0.3; Binding of serum 6 to linear peptide (PEPSCAN-ELISA) [3]: 0.1; Binding of serum 37 to linear peptide (PEPSCAN-ELISA) [3]: 0.5; Binding of serum 62 to linear peptide (PEPSCAN-ELISA) [3]: 0.6; Binding of serum London to linear peptide (PEPSCAN-ELISA) [3]: 0.5; Binding of serum SARS-green to linear peptide (PEPSCAN-ELISA) [3]: 0.3; Binding of serum SARS-yellow to linear peptide (PEPSCAN-ELISA) [3]: 0.7
EGSRGGSQASSRSSS	0.7	1.0	1.0	0.8	0.2	0.7		0.4		0.3		0.4	0.6	0.6	0.4	0.4	0.7	0.7	0.1	0.2	Binding of serum 1a to linear peptide (PEPSCAN-ELISA) [3]: 0.3; Binding of serum 1b to linear peptide (PEPSCAN-ELISA) [3]: 0.2; Binding of serum 2 to linear peptide (PEPSCAN-ELISA) [3]: 0.3; Binding of serum 6 to linear peptide (PEPSCAN-ELISA) [3]: 0.4; Binding of serum 37 to linear peptide (PEPSCAN-ELISA) [3]: 0.9; Binding of serum 62 to linear peptide (PEPSCAN-ELISA) [3]: 0.8; Binding of serum London to linear peptide (PEPSCAN-ELISA) [3]: 0.5; Binding of serum SARS-green to linear peptide (PEPSCAN-ELISA) [3]: 0.6; Binding of serum SARS-yellow to linear peptide (PEPSCAN-ELISA) [3]: 0.6
INTNSGPDDQIGYYR	0.6	0.8	0.7	0.7	0.2	0.5	0.3	0.4	0.2	0.3	0.2	0.4	0.2	0.7	0.5	0.4	0.5	0.5	0.1	0.2	Binding of serum 6 to linear peptides of protein N of SARS-CoV Urbani [3]: 0.2; Binding of serum 37 to linear peptides of protein N of SARS-CoV Urbani [3]: 0.9; Binding of serum 62 to linear peptides of protein N of SARS-CoV Urbani [3]: 0.7; Binding of serum London to linear peptides of protein N of SARS-CoV Urbani [3]: 0.4; Binding of serum SARS-green to linear peptides of protein N of SARS-CoV Urbani [3]: 0.2; Binding of serum SARS-yellow to linear peptides of protein N of SARS-CoV Urbani [3]: 0.7
